Entries after “also recorded” stand apart in the source; their conditions may differ. Like-named read-outs stand apart in the source and are kept apart here.
Tests used:
[1] = molecular target: human serum albumin (Homo sapiens, UniProt P02768); experiment: Extent of albumin binding: high throughput equilibrium dialysis (fu,inc, Kd); type: in vitro ADME; conditions: mean ± SD; for fu,inc (4%) / fraction unbound at 6 h: equilibrium dialysis 37 °C 6 h; for fraction unbound at 6 h: human
Protocol: Briefly, cellulose membranes with MWCO of 12–14 kDa were submerged in distilled water for 1 h, followed by 20% ethanol/distilled water for at least 20 min. Prior to the start of the experiment, cellulose membranes were rinsed in distilled water and submerged in blank DPBS for 15 min. The HTDialysis device was assembled according to the manufacturer’s instructions (https://www.htdialysis.com). Blank DPBS was first added to the receiver side of the dialysis membranes, followed by DPBS spiked with HSA and the OAT1/3 substrate to the donor side. Each HSA concentration was tested in triplicates. The HTDialysis device was sealed with an adhesive sealing film and incubated in a water bath at 37 °C for 6 h shaken at 150 rpm. Once the assay was completed, aliquots from both receiver and donor wells were transferred to a 96-well plate and stored at −80 °C until analysis. DPBS spiked with the OAT1/3 substrate from both before and after incubation was stored to assess the recovery and stability of the samples. To prepare the sample for analysis, donor and receiver samples were matrix-matched and quenched with ice-cold acetonitrile containing an internal standard (0.5 μM gemfibrozil or 0.05 μM buspirone).

[2] = human, in vivo
[3] = in vivo, plasma renal clearance, clinical data; cited from earlier work
[4] = test system: OAT3; experiment: clinical; conditions: human
[5] = molecular target: T1, OAT3 (Homo sapiens, UniProt Q8TCC7); experiment: OAT3 uptake study in ciPTEC-OAT3; conditions: for Vb,max OAT3, Active and Passive Uptake: eq 4 fitted to CLint,u; for Vb,max OAT3, Active and Passive Uptake / Vb,max OAT3, Active Uptake Only: mean ± S.D.; for Vb,max OAT3, Active Uptake Only: eq 4 fitted to CLint,u,active
T1 sequence (Q8TCC7 1-542): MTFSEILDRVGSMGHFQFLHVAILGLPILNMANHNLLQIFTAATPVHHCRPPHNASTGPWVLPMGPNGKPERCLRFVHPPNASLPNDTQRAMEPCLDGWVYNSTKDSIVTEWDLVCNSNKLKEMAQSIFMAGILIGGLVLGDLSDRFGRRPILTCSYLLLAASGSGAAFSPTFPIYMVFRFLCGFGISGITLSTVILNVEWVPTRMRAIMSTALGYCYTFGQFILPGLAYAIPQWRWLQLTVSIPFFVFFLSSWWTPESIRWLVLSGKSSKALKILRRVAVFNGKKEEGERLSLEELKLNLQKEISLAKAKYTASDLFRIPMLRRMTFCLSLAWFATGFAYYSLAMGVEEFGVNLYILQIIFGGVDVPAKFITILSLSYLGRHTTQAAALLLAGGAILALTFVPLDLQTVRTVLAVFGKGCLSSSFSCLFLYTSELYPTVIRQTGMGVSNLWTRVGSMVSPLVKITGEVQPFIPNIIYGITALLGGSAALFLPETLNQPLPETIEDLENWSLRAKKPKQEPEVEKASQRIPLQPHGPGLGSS

[6] = test system: OAT1/3; experiment: Bottom-up IVIVE of CLint,sec, CLsec and CLr, relative expression factor (REF) approach; design: species or system human; conditions: REF approach
Text: (§1) The relative expression and relative activity factor (REF and RAF) are unitless scalers that account for in vivo versus in vitro differences in the abundance and activity of OAT1/3 and are used for IVIVE of in vitro CLint,u,active. REF was derived from the OAT1/3 expression ratio between the in vivo human kidney cortex to the in vitro ciPTEC-OAT1/3, as shown in eq 7: [drawing 8] 7 Absolute abundance of OAT1 and OAT3 in the human kidney cortex was previously quantified by our group using the filter-aided sample preparation protocol and global proteomic analysis.[44]

[7] = molecular target: T2, OAT1 (Homo sapiens, UniProt Q4U2R8); experiment: OAT1 uptake study in ciPTEC-OAT1
T2 sequence (Q4U2R8 1-563): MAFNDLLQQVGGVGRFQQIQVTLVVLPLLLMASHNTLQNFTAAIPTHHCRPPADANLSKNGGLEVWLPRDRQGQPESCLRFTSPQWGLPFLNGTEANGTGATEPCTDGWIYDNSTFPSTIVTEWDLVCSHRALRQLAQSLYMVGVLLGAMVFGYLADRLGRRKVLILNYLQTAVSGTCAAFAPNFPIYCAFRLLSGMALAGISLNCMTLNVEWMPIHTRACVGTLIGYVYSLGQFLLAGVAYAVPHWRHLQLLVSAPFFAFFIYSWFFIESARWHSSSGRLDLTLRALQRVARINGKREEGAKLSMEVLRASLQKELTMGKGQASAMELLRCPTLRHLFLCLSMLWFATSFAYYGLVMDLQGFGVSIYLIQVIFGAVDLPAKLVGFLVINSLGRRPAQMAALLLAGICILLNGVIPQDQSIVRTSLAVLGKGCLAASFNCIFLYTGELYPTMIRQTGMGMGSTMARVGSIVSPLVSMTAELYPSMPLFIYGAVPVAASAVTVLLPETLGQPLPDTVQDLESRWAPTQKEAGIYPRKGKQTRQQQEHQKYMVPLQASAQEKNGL

[8] = Observed in vivo (clinical) renal, secretion and intrinsic secretion clearance; conditions: in vivo; for CLint,sec Observed: back-calculated from clinical data
[9] = test system: OAT1; experiment: as above; conditions: human, plasma
[10] = test system: OAT1/3; experiment: Bottom-up IVIVE of CLint,sec, CLsec and CLr, relative activity factor (RAF) approach; design: species or system human
Text: as §1

[11] = 1% human serum albumin in DPBS, 1% HSA, read-out: fu,inc (1%)
[12] = 4% HSA in DPBS, 4% HSA, read-out: fu,inc (4%)

human serum albumin, sequence (P02768 25-609): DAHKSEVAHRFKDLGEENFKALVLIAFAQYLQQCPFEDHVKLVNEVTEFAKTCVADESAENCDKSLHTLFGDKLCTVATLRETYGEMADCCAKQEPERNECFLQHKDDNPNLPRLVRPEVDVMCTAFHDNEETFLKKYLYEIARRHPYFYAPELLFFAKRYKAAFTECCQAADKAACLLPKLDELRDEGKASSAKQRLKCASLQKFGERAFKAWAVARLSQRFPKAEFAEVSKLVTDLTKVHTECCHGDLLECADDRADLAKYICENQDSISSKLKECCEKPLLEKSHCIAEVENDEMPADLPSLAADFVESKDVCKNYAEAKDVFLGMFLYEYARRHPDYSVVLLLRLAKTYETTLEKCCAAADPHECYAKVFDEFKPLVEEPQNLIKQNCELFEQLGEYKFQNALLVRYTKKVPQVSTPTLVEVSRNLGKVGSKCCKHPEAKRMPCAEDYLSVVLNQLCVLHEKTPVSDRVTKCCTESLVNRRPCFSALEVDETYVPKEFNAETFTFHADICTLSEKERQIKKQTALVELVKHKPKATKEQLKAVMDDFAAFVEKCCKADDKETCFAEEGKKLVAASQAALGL

SMILES	fu,inc (4%) ([1]; 4% HSA)	fraction unbound at 6 h [1, 11]	fraction unbound at 6 h [1, 12]	CLsec Observed [2] [L/h]	CLr Observed [3] [L/h]	Vb,max OAT3, Active and Passive Uptake [5] [pmol/min/mg]	Vb,max OAT3, Active Uptake Only [5] [pmol/min/mg]	CLint,sec Predicted 0% HSA [6] [L/h]	CLint,sec Predicted 1% HSA [6] [L/h]	CLint,sec Predicted 4% HSA [6] [L/h]	CLsec Predicted 0% HSA [6] [L/h]	CLsec Predicted 1% HSA [6] [L/h]	CLsec Predicted 4% HSA [6] [L/h]	CLint,sec Observed [8] [L/h]	further results
CCC(CC)O[C@@H]1C=C(C(=O)O)C[C@H](N)[C@H]1NC(C)=O [oseltamivir carboxylate]	0.983 ± 0.018	0.973 ± 0.039	> 0.95	8.29	15.6	-1150 ± 2660	-1120 ± 2640								CLint,sec Observed [2]: 11.7 L/h; microsomal CLint [4]: 36.2 µL/min/mg; Effect of HSA on OAT3 uptake / CLint,u,active ([5]; 1 and 4% HSA vs control): no effect; also recorded: did not show any significant change; also recorded: absence of any change
Nc1ncnc2c1ncn2CCOCP(=O)(O)O [adefovir]	0.977 ± 0.062	0.999 ± 0.019	> 0.95		14.2			42.9	57.8	44.7	21.3	25.1	21.8	10.8	Effect of HSA on OAT1 uptake / CLint,u,active ([7]; 1 and 4% HSA vs control): no effect; also recorded: did not show any significant change; also recorded: absence of any change; Vb,max OAT1, Active and Passive Uptake ([7]; eq 4 fitted to CLint,u, mean ± S.D.): -1083 ± 194000 pmol/min/mg; Vb,max OAT1, Active Uptake Only ([7]; eq 4 fitted to CLint,u,active, Kd,m fixed from OAT3 data, mean ± S.D.): 3055 ± 188000 pmol/min/mg; OAT3 substrate status (uptake in ciPTEC-OAT3) ([5]; control vs probenecid 300 μM): not an OAT3 substrate; CLsec Observed ([8]; plasma secretion clearance): 7.82 L/h; microsomal CLint [9]: 35.2 µL/min/mg
O=C(NC[C@H]1CN(c2ccc(N3CCOCC3=O)cc2)C(=O)O1)c1ccc(Cl)s1 [rivaroxaban]		0.217 ± 0.006	0.096 ± 0.007	2.63	3.17	723 ± 216	714 ± 201	6.78	41.7	67.0	0.48	2.79	4.32	41.2	Kd ([1]; estimated using eq 3 from measured fu,inc): 55 ± 4.3 µM; CLint,sec Predicted 0% HSA [10]: 34.1 L/h; CLint,sec Predicted 1% HSA [10]: 210 L/h; CLint,sec Predicted 4% HSA [10]: 337.7 L/h; CLsec Predicted 0% HSA [10]: 2.32 L/h; CLsec Predicted 1% HSA [10]: 11.1 L/h; CLsec Predicted 4% HSA [10]: 15.4 L/h; OAT1 substrate status (uptake in ciPTEC-OAT1) ([7]; control vs probenecid 300 μM): did not show any appreciable uptake; ratio of CLint,u,active (R) (HSA/control) 1% ([5]; OAT3, 1% HSA vs control): 6.44 ± 2.61; ratio of CLint,u,active (R) (HSA/control) 4% ([5]; OAT3, 4% HSA vs control): 10.0 ± 2.2

— article PMC11372837, “Albumin-Mediated Drug Uptake by Organic Anion Transporter 1/3 Is Real: Implications for the Prediction of Active Renal Secretion Clearance” (Molecular Pharmaceutics, 2024)
